Measurements from patent EP4186364A1, “ANTIMICROBIAL TREATMENT OF SUBSTRATES” (Livinguard AG, priority 2021, dated 2023).
In brackets after ≈: the same amount, converted by molar mass. Read-outs that look alike come from different tables or passages of the source.

What was measured:
[1] = test system: Escherichia coli (E.coli); experiment: Antimicrobial activity of a METAC solution (optical density OD600); format: cell-based
[2] = at 20 °C; Flask method; cited from earlier work
[3] = at 20 °C; Column elution; cited from earlier work

| SMILES | METAC required to stop E.coli growth ([1]; METAC in solution, OD600, Fig. 8b) [mg/mL] | antimicrobial activity ([1]; METAC monomer as such, not bound to a substrate) | water solubility [2] [µg/mL] | water solubility [3] [µg/mL] |
| --- | --- | --- | --- | --- |
| C=C(C)C(=O)OCC[N+](C)(C)C.[Cl-] [METAC, [2-(methacryloyloxy)ethyl]trimethylammonium chloride] | 40 | low antimicrobial activity |  |  |
| Cc1cc(C)c(C(=O)P(=O)(c2ccccc2)c2ccccc2)c(C)c1 [TPO, diphenyl(2,4,6-trimethylbenzoyl)phosphine oxide] |  |  | 3.3 (≈ 9.47 µM) | 11.9 (≈ 34.2 µM) |
